# Test results taken from patent US8202563B2, “Acidulate composition and methods for making and utilizing the same” (Clabber Girl Corporation, priority 2008, dated 2012).
# Tested on: microbial growth (mold)
# Assay: 6-month storage test of flour tortillas, visual signs of microbial growth
# Details: flour tortillas with sodium propionate and potassium sorbate, acidulate 0.2832 weight %, stored at about 77° F., end of 6-month period
# Experimental: The ingredients listed in Table 1 were combined at 100° F. The water and flour mixture was mixed for 2 minutes at a low speed with a dough hook. The dough was allowed to stand for 5 minutes and then divided into 50-gram balls that were heat pressed at 175° F. for 10 seconds. The raw tortillas were then baked on a griddle at 400° F. for 30 seconds on each side, and subsequently cooled.
# Tortillas from each test batch were evaluated after baking for volume, eating quality, and microbial growth. Thereafter, tortilla specimens from of each batch were heat sealed in cellophane bags, bagged in ZIPLOCK® freezer pouches and stored at about 77° F. All test batches of tortilla samples were checked periodically for visual signs of microbial growth, volume reduction, and overall appearance over a 6-month period.
compound,measurement,value
"O=C(O)/C=C/C(=O)O [raw fumaric acid, fumaric acid]",visual signs of microbial growth / mold on tortillas,"visual signs of microbial growth, albeit to a lesser extent than the control tortillas"
